Test results: patent US10829519B2, “Angiotensin (1-7) analogs and methods relating thereto” (WAKE FOREST UNIVERSITY HEALTH SCIENCES, priority 2015, dated 2020)
Where two headings read alike, the source gives them in different places. Where a SMILES comes first, the peptide text is derived from it. Bridges are numbered along the chain shown (N, C = ends). [ ]: non-standard residue; d: D form. Nle = CCCC[C@H](N)C(=O)O

Key:
[1] = system: 4T1 breast cancer cells; assay: In vivo inhibition of tumor growth by subcutaneous administration, orthotopic 4T1 model in BALB/C mice; set-up: species or system mouse
Method: The ability of TCAng05 to inhibit tumor growth in vivo was measured in an orthotopic model of human breast cancer, using 4T1 breast cancer cells. 4T1 cells (2.5×10^5 in saline) were injected into the 4th mammary fat pad of BALB/C mice. Tumor size was measured every 3 days using a caliper and tumor volume was calculated using the formula for a semi-ellipsoid. The tumors were allowed to grow until they reached a size of 100 mm^3, at which point subcutaneous treatment was started (Day 0). Primed osmotic mini-pumps were implanted into the subcutaneous space on the back of each mouse to deliver either saline, 24 μg/kg/h Ang-(1-7), 6 μg/kg/h TCAng05 (low), 12 μg/kg/h TCAng05 (medium), or 24 μg/kg/h TCAng05 (high). Mice were sacrificed on Day 21 of treatment. Five animals were used per treatment group. […] Treatment with Ang-(1-7) reduced tumor size 50%, to a final size of 495.5±110.8 mm^3. […] At the time of sacrifice, the mice were weighed and the tumors, heart and kidneys were weighed.

[2] = Stability of peptides incubated in rat plasma at 37° C., HPLC; type: in vitro ADME
Method: The stability of the Ang(1-7) peptide analog TCAng04 (SEQ ID NO:5) was assessed in rat plasma. The peptide was incubated with rat plasma at 37° C. for 60 min (left) or 125 hours (right). The concentration of TCAng04 and Ang-(1-7) was determined by HPLC using verified standards. Ang-(1-7) was rapidly degraded following incubation in rat plasma with a half-life of about 30 min, similar to the pharmacokinetics observed in two clinical trials (FIG. 1B) (see Rodgers et al. Cancer Chemother Pharmacol 2006; 57:559-68; and Petty et al. Clinical Cancer Research 2009; 15:7398-404). Conversely, TCAng04 was stable under the same conditions, with a half-life in rat plasma of approximately 50 hours.

[3] = system: A549 human lung cancer cells; type: cell-based; details: 100 nM, analogs added on Day 0 (single dose), cell number
Method: (§1) To determine the effect of the peptide analogs on tumor cell growth, 100 nM Ang-(1-7) or analogs TCAng01-TCAng05 (SEQ ID NOs:2-6) were incubated with subconfluent monolayers of actively growing A549 human lung cancer cells or MDA-MB-231 human breast cancer cells in 24-well cluster plates for 6 to 10 days or 7 to 10 days. Assays were performed in duplicate for 4-14 replicates or 3-14 replicates, respectively. Cell number was counted using a Nexelcom Cellometer. […] Ang-(1-7) does inhibit the growth of human breast cancer cells (by 42.9±5.2%, n=6, over 6-10 days) and human lung cancer cells (by 53.1±7.1%, n=12, over 7-10 days) if it is added daily, as shown in FIG. 2 and FIG. 3.

[4] = system: MDA-MB-231 human breast cancer cells; type: cell-based; details: 7 to 10 days; for reduction of cell growth / effect on MDA-MB-231 cell growth: 100 nM; for reduction of cell growth: analogs added on Day 0 (single dose), cell number; for effect on MDA-MB-231 cell growth: added once (Day 0/Day 1)
Method: as §1
A linear form of TCAng05 (L-TCAng05; SEQ ID NO:7) was tested to determine the influence of cyclization on the stability of the peptide. Subconfluent monolayers of MDA-MB-231 human breast cancer cells were incubated with 100 nM of Ang-(1-7), L-TCAng05, or TCAng05 for 7 to 10 days and cell number was counted using a Nexelcom Cellometer. Assays were performed in duplicate for 3-14 replicates. Ang-(1-7) was added daily, due to its rapid degradation.
Similar assays were performed to assess whether inhibition of cell growth by TCAng05 was mediated by the Ang-(1-7) receptor mas. Subconfluent monolayers of MDA-MB-231 human breast cancer cells were incubated with 100 nM of Ang-(1-7), added daily, or TCAng05, in the presence or absence of 1 μM Ang-(1-7) receptor antagonist D-Alanine^7-Ang-(1-7) [Dala] for 7 to 10 days and cell number was counted using a Nexelcom Cellometer. Assays were performed in duplicate for 4-14 replicates.

[5] = system: MDA-MB-231 human breast cancer cells; assay: In vitro inhibition of MDA-MB-231 cell growth by analogs with amino acid substitutions (Example 7); type: cell-based; details: 100 nM, 8-10 days; for growth inhibition compared with Ang-(1-7) and TCAng05: added twice weekly
Method: To determine whether the novel analogs reduced tumor growth, subconfluent monolayers of actively growing MDA-MB-231 human breast cancer cells in 24-well cluster plates were incubated with 100 nM of Ang(1-7) (A7), TCAng05 (TC), or one of analogs NEP1-24 for 8-10 days. Ang-(1-7) was added daily as it is rapidly degraded while the Ang(1-7) analogs were added twice weekly at the time the cells were fed. Saline was used as control (C). Cell numbers were then counted using a Nexelcom Cellometer. Assays were performed in triplicate for 2-4 replicates.

[6] = system: collagen; assay: Picrosirius red collagen staining of tumors from orally treated mice (fibrosis); type: in vivo, mouse; details: oral TCAng05
Method: (§2) To identify the molecular mechanisms for the reduction in tumor weight, tumors from mice that received oral TCAng05 (described in Example 5) were assessed for cell markers associated with cell proliferation, angiogenesis, and fibrosis. Tumors were fixed in 4% formalin, embedded in paraffin, sectioned at 5 microns, and analyzed by immunohistochemistry. Tumor tissue sections were visualized using a Leica DM microscope (Leica Microsystems, Bannockburn, Ill.) with the Simple PCI Version 6.0 computer-assisted imaging software (Hamamatsu Corporation, Sewickley, Pa.) and photographed with the Qlmaging Retiga 1300R Camera (Qlmaging Co. Surey, BC, Canada). The number of immunopositive cells is expressed as a percentage of the total cell number examined (100 cells counted from each tissue site within a tumor section).
Tumor sections were stained with Picrosirius red to stain for collagen.

[7] = system: 4T1 breast cancer cells; type: in vivo, mouse; details: for final tumor volume: daily gavage, untreated 671.2±127.2
Method: The oral efficacy of TCAng05 to inhibit tumor growth in vivo was also measured using the orthotopic model of human breast cancer described in Example 4. 4T1 breast cancer cells were injected into the mammary fat pad of BALB/C mice (2.5×10^5 cells in saline). Tumor size was measured every 3 days using a caliper and tumor volume was calculated using the formula for a semi-ellipsoid. The tumors were allowed to grow until they reached a size of 100 mm^3, at which point treatment was started (Day 0). Mice received daily gavage of TCAng05 at one of three concentrations: 12 μg/kg/day (Low), 60 μg/kg/day (Medium), or 300 μg/kg/day (High). Mice were sacrificed on Day 21 of treatment. Treatment groups contained 3-4 animals. […] At the time of sacrifice, the tumors were weighed.

[8] = system: CD34; assay: CD34 immunohistochemistry of tumors from orally treated mice (blood vessel density); type: in vivo, mouse; details: oral TCAng05
Method: as §2
Tumor sections were stained with an antibody specific for CD34 to label endothelial cells lining blood vessels and measure the density of blood vessels. […] In previous studies with orthotopic models, Ang-(1-7) reduced angiogenesis in mice with human lung tumors or human prostate tumors (Soto-Pantoj a et al., Mol Cancer Ther 2009; 8:1676-83; Krishnan et al., Prostate 2013; 73:60-70). This is in agreement with a reduction in the pro-angiogenic peptide platelet-derived growth factor (PDGF) in patients with solid tumors treated with Ang-(1-7) (Petty et al., BMC Cancer 2012; 12:404).

[9] = system: Ki67; assay: Ki67 immunohistochemistry of tumors from orally treated mice (cell proliferation); type: in vivo, mouse; details: oral TCAng05, 12, 60, 300 μg/kg/day
Method: as §2
Tumor sections were stained with an antibody specific for Ki67 to measure cell proliferation.

[10] = rat plasma, 37° C., HPLC, read-out: half-life in rat plasma (converted)

## CC[C@H](C)[C@H](NC(=O)[C@H](Cc1ccc(O)cc1)NC(=O)[C@@H](NC(=O)[C@H](CCCNC(=N)N)NC(=O)[C@@H](N)CC(=O)O)C(C)C)C(=O)N[C@@H](Cc1c[nH]cn1)C(=O)N1CCC[C@H]1C(=O)O [Ang-(1-7), DRVYIHP]
[1]; subcutaneous treatment, at sacrifice
  weight of the mice, size of hearts and kidneys: no change
[2]; [10]
  half-life: ~30 min
[2]; read-out: half-life in plasma
  half-life: 30 min

## CC[C@H](C)[C@@H]1NC(=O)[C@H](Cc2ccc(O)cc2)NC(=O)[C@H](C(C)C)NC(=O)[C@H](CCCNC(=N)N)NC(=O)[C@H](CC(=O)O)NC(=O)C[C@@H](C(=O)N[C@@H](C(=O)N2CCC[C@@H]2C(N)=O)C(C)C)NC(=O)[C@@H]2CCCN2C(=O)[C@H](Cc2c[nH]cn2)NC1=O [TCAng04, cyc[DRVYIHPD](dV)(dP)-amide] (DRVYIHPD[dV][dP]-NH2; lactam N-8)
[3]
  reduction of cell growth: 33.7±12.3%
[2]; [10]
  half-life: ~3000 min
[4]
  reduction of cell growth: 51.5±5.4%

## Ac-(Nle)DRVYIHPK(dV)(dP)-amide (Ac-[Nle]DRVYIHPK[dV][dP]-NH2; SMILES CCCC[C@H](NC(C)=O)C(=O)N[C@@H](CC(=O)O)C(=O)N[C@@H](CCCNC(=N)N)C(=O)N[C@H](C(=O)N[C@@H](Cc1ccc(O)cc1)C(=O)N[C@H](C(=O)N[C@@H](Cc1c[nH]cn1)C(=O)N1CCC[C@H]1C(=O)N[C@@H](CCCCN)C(=O)N[C@@H](C(=O)N1CCC[C@@H]1C(N)=O)C(C)C)[C@@H](C)CC)C(C)C) [L-TCAng05, linear form of TCAng05]
[4]
  effect on MDA-MB-231 cell growth: ineffective

## [Lac(2,9)[Ac-(Nle)cyc[DRVYIHPK](dV)(dP)-amide (Ac-[Nle]DRVYIHPK[dV][dP]-NH2; lactam 2-9; not fully specified; printed as [Lac(2,9)[Ac-(Nle)cyc[DRVYIHPK](dV)(dP)-amide) [TCAng05]
[5]; Ang-(1-7) added daily, analogs added twice weekly
  reduction of cell growth: 27.3±9.8%
[1]; 24 μg/kg/h, subcutaneous osmotic mini-pump, saline 980.1±35.0
  final tumor size (volume): 259.1±19.2 mm^3
[1]; 6, 12, 24 μg/kg/h subcutaneous
  tumor size across doses: dose-dependent reduction
[1]; highest concentration (24 μg/kg/h), subcutaneous, at sacrifice
  reduction in tumor weight: 48%
[1]; low (6 μg/kg/h) and medium (12 μg/kg/h) doses, subcutaneous
  effect of low and medium doses: not significantly impact
[1]; mouse, in vivo, sc
  weight of the mice, size of hearts and kidneys: no change
[6]
  collagen staining (Picrosirius red) in tumor sections: reduced
[3]
  reduction of cell growth: 33.7±12.3%
[7]; high dose 300 μg/kg/day
  final tumor volume: 378.3±151.2 mm^3
[7]; low dose 12 μg/kg/day, oral
  effect of low dose: not significantly impact
[7]; medium dose 60 μg/kg/day
  final tumor volume: 289.7±64.2 mm^3
[7]; medium or high oral dose, at sacrifice
  tumor weight: reduced
[7]; mouse, in vivo, po
  mouse weight, heart weight or kidney weight: no effect
[4]; 100 nM peptide plus 1 μM D-Alanine7-Ang-(1-7) [Dala]
  inhibition of growth in the presence of Ang-(1-7) receptor antagonist Dala: blocked
[4]
  effect on MDA-MB-231 cell growth: reduced growth
  reduction of cell growth: 51.5±5.4%
[8]
  density of blood vessels (CD34) in tumor sections: significant reduction
[9]
  Ki67 immunoreactivity in tumor sections: dose-dependent reduction

## [Lac(2,9)]Ac-(Nle)cyc[DRVYAHPK](dV)(dP)-amide (Ac-[Nle]DRVYAHPK[dV][dP]-NH2; lactam 2-9; not fully specified; printed as [Lac(2,9)]Ac-(Nle)cyc[DRVYAHPK](dV)(dP)-amide) [NEP4]
[5]
  growth inhibition compared with Ang-(1-7) and TCAng05: reduced cell growth comparably

## [Lac(2,9)]Ac-(Nle)cyc[DRVYIHP(Dab)](dV)(dP)-amide [NEP24]
[5]
  growth inhibition compared with Ang-(1-7) and TCAng05: reduced cell growth comparably

## [Lac(2,9)]Ac-(Nle)cyc[DRVYIHP(K)-amide] (Ac-[Nle]DRVYIHPK-NH2; lactam 2-9; not fully specified; printed as [Lac(2,9)]Ac-(Nle)cyc[DRVYIHP(K)-amide]) [NEP8]
[5]
  growth inhibition compared with Ang-(1-7) and TCAng05: reduced cell growth comparably

## [Lac(2,9)]Ac-(Nle)cyc[DRVYIHP(NMeK)](dV)(dP)-amide [NEP20]
[5]
  growth inhibition compared with Ang-(1-7) and TCAng05: reduced cell growth comparably

## [Lac(2,9)]Ac-(Nle)cyc[DRVYLHPK](dV)(dP)-amide (Ac-[Nle]DRVYLHPK[dV][dP]-NH2; lactam 2-9; not fully specified; printed as [Lac(2,9)]Ac-(Nle)cyc[DRVYLHPK](dV)(dP)-amide) [NEP12]
[5]
  growth inhibition compared with Ang-(1-7) and TCAng05: reduced cell growth comparably

## [Lac(2,9)]H2N-(Nle)cyc[DRVYIHPK](dV)(dP)-amide (H-[Nle]DRVYIHPK[dV][dP]-NH2; lactam 2-9; not fully specified; printed as [Lac(2,9)]H2N-(Nle)cyc[DRVYIHPK](dV)(dP)-amide) [NEP16]
[5]
  growth inhibition compared with Ang-(1-7) and TCAng05: reduced cell growth comparably
